The values that follow come from patent publication US6242428A, “Nucleoside analogs and uses in treating Plasmodium falciparum infection” (Unisearch Limited, priority 1998, dated 2001).

The target of one data set is P. falciparum. Nature of the data set: In vitro toxicity against P. falciparum in culture (radiolabelled hypoxanthine incorporation / lactate dehydrogenase assay). In kind it is cell-based, Plasmodium falciparum, FCQ27. Here is the method: P. falciparum, FCQ27, was maintained in culture using the techniques described by Trager & Jensen (W. Traqer and J. B. Jensen, Science, 193 673-675 (1976)). Cultures containing 2% hematocrit suspensions of parasitized human type O^+ erythrocytes in RPMI 1640 medium, supplemented with 25 mM HEPES-KOH, pH 7.2, 25 mM NaHCO3 and 10% human type O^+ serum (v/v) are maintained in modular incubator chambers at 37° C. in a gas mixture of 5% O2, 5% CO2 and 90% N2. The isolate of P. falciparum used in these experiments was FCQ27, routinely maintained in synchronized or asynchronous in vitro cultures at low hematocrit.
The potential toxicity of nucleoside analogues against P. falciparum in culture was tested in microtitre plates over the range of drug concentrations for 24 hours. The procedures for monitoring parasite viability is well established (A. M. Gero, H. V. Scott, W. J. O'Sullivan and R. I. Christopherson, Mol. Biochem. Parasitol. 34, 87-89 (1989)) and is based on radiolabelled hypoxanthine or isoleucine incorporation. The incorporation of [G-^3 H]hypoxanthine into the nucleic acids of P. falciparum was used to assess the viability of the parasite in vitro. Microculture plates were prepared with each well containing 225 μl of a 2% hematocrit culture of asynchronous parasited erythrocytes (1% parasitized cells). Each plate, containing varying concentrations of the drug to be studied (up to 200 μM final concentration for initial screen), was incubated for 24 h at 37° C. in a gas mixture of 5% O2, 5% CO2 and 90% N2, at which point [G-^3 H] hypoxanthine was added to each well and the incubation continued under identical conditions for a further 18-20 h. The control infected cells (i.e. without drug), routinely reached a parasitemia of 6-8% before harvesting. Expediency was aided by 96-well plate counter using lactate dehydrogenase for the drug susceptibility assay (L. K. Basco, F. Marguet, M. T. Makler and J. Lebbras, Exp. Parasitol. 80, 260-271 (1995); M. T. Makler and D. J. Hinrichs; Am. J. Trop. Med. Hyg. 48, 205-210 (1993)). This assay gave the identical results to the hypoxanthine technique. In addition, for each experiment, microscopic counting of Giemsa stained thin slides was used as a control.
The biological screen involved evaluation of the compounds against the protozoan P. falciparum in in vitro culture. The range of drug concentrations was used independently by two assays. One, radiolabelled hypoxanthine incorporation into the nucleic acid of P. falciparum, and the other, more expedient assay, a 96-well plate susceptibility assay using lactate dehydrogenase. Both assays gave identical results. In addition, microscopic counting of Giemsa stained thin slides was used as a control. Examples of experimental curves are attached as Appendix 2. The biological tests were done at several concentrations. The highest concentration was 200 μM, the compounds were considered active at concentrations less than 40 μM.

For data set [1], the system named is P. falciparum infected erythrocytes (trophozoites). In kind it is in vitro ADME, human erythrocytes infected with Plasmodium falciparum. Here is the method: The metabolism of the L-nucleoside conjugates was studied by HPLC analysis. The primary aim was to determine their ability to be catabolized by parasite purine salvage enzymes. Some effect on the purine metabolic pools was also observed.
For each HPLC determination 200 μL of packed cells of 80-90% trophozoite infected cells were used. These were isolated from in vitro cultures by synchronization of the parasites in in vitro cultures using sterile D-sorbitol (L. Lambros and J. P. Vanderberg, Parasitol. 65, 418-420 (1979)) followed by separation of the trophozoites from non infected erythrocytes by Percoll gradients as described previously (A. M. Gero, H. V. Scott, W. J. O'Sullivan and R. I. Christopherson, Mol. Biochem. Parasitol. 34, 87-89 (1989)). Trophozoites were incubated at 37° C. for 2 hours with each compound to be tested. Compounds were incubated with both whole infected cells as whole and lyzed uninfected normal erythrocytes to determine:
a) entry to the cell (whether they were transported);
Drug incubation was terminated by centrifugation through silicon oil using the method of Upston and Gero (J. M. Upston and A. M. Gero, Biochem. Biophys. Acta. 1236, 249-258 (1995)). This procedure separated intact trophozoites from extracellular non-transported drug solution.
The metabolism of nucleosides with potential chemotherapeutic activity was assessed by the analysis of cytoplasmic samples by reverse phase ion-pair high performance liquid chromatography (R. S. Toguzov, Y. V. Tikhonov, A. M. Pimenov, V. Prokudin, Journal of Chromatography, I. Biomedical Appl. 434, 447-453 (1988)). Nucleotides, nucleosides and bases were separated by this HPLC method.
It has been established that transport and uptake in parasite invaded cells is different from that of normal blood erythrocytes (A. M. Gero & A. M. Wood, In: Pyrine & Pyrimidine Methabolism in Man VII, Part A. (R. A. Harkness et al., Eds) Plenum Press, NY, 169-172 (1991)). Invasion by the malaria parasite comprises the cell membrane, allowing penetration of unnatural substances of various size and shape, whereas normal cells are very selective in uptake. It was shown that L-nucleosides and their derivatives easily penetrate invaded cells, while they have a very slow rate of uptake into normal cells, if they enter at all. In order to obtain preliminary data on transport, uptake and metabolism, the HPLC method was used to analyze the following 10 Lipitek compounds: L-101, L-103, L-109, L-111, L-117, L-133, L-138, GCl 1007, GCl 1027, GCl 1069.
These compounds were chosen for the identification of possible metabolites. In this experiment the compounds were incubated with both whole infected cells, and with whole and lysed uninfected cells, followed by the separation of unreacted compound and HPLC analysis.

Where [2] appears, read: Table 1, 24 h drug exposure, up to 200 μM, read-out: IC50.
Where [3] appears, read: Plasmodium falciparum, 24 h, Table 1, 24 h drug exposure, up to 200 μM, read-out: IC50.
The mark [4] stands for this setting: Plasmodium falciparum, Table 2, FUdR linkage position 5', read-out: IC50.
Setting [5] is: Plasmodium falciparum, Table 5, β-D-FUdR and possible metabolic products, read-out: IC50.

“Also recorded” adds a separate entry of the source. Where two headings read alike, the source gives them in different places.

For 6-thio-β-L-purine [GCI 1076], on P. falciparum (setting [2]), the IC50 was over 200 µM.
In the data set with P. falciparum (Plasmodium falciparum), `O=c1[nH]cc(F)c(=O)[nH]1` [5FUracil, 5-fluorouracil, reference compound] had an IC50 of 6 µM.
For `O=c1[nH]c(=O)n([C@@H]2OC[C@H](O)[C@@H]2O)cc1F` [GCI 1007, α-L-erythrofuranosyl-5-fluorouracil], the IC50 in the data set with P. falciparum (setting [3]) is over 200 µM. The “toxicity against P. falciparum, in words” value with P. falciparum (statement in the transport and metabolism study) was “toxic against P. falciparum”. Further, the “entry to the infected cell” value in data set [1] is recorded as “entered the infected cells”.
In the case of `Nc1ncnc2c1ncn2[C@@H]1O[C@@H](CO)[C@H](O)[C@H]1O` [GCI 1018, α-L-arabinofuranosyl adenine], the IC50 with P. falciparum (Plasmodium falciparum, 24 h) was over 200 µM.
`Nc1nc2c(ncn2[C@H]2O[C@@H](CO)[C@H](O)[C@@H]2O)c(=O)[nH]1` [GCI 1030, β-L-G]: the IC50 in the data set with P. falciparum (setting [3]) is over 200 µM.
On the same count and under the same terms, in the case of `O=c1[nH]cnc2c1ncn2[C@H]1O[C@@H](CO)[C@H](O)[C@@H]1O` [GCI 1033, β-L-I] it was over 200 µM.
Turning to `Nc1ncnc2c1ncn2[C@@H]1C[C@@H](O)[C@H](CO)O1` [GCI 1036, β-L-Da], in the data set on P. falciparum (setting [3]), the IC50 was over 200 µM.
Turning to `O=c1[nH]cnc2c1ncn2[C@@H]1C[C@@H](O)[C@H](CO)O1` [GCI 1037, β-L-dI], the IC50 with P. falciparum (setting [3]) is over 200 µM.
Consider `Nc1ncnc2c1ncn2[C@@H]1O[C@@H](CO)[C@H](O)[C@@H]1O` [GCI 1066, α-L-A], for which the IC50 in the data set on P. falciparum (Plasmodium falciparum, 24 h) was over 200 µM.
In the case of `Nc1nc2c(ncn2[C@@H]2C[C@@H](O)[C@H](CO)O2)c(=O)[nH]1` [GCI 1070, β-L-dG], the IC50 in the data set on P. falciparum (setting [3]) is over 200 µM.
In the case of `Nc1ncnc2c1ncn2[C@@H]1CC[C@H](CO)O1` [GCI 1077, β-L-ddA], the IC50 with P. falciparum (setting [3]) was over 200 µM.
Turning to `Nc1ncnc2c1ncn2[C@H]1CC[C@H](CO)O1` [GCI 1079, α-L-ddA], the IC50 with P. falciparum (setting [3]) was over 200 µM.
In the case of `CNc1ncnc2c1ncn2[C@H]1O[C@@H](CO)[C@H](O)[C@@H]1O` [GCI 1085, N^6 -methyl-β-L-A], the IC50 with P. falciparum (setting [3]) was over 200 µM.
In the case of `O=c1[nH]c(=O)n([C@H]2C[C@@H](OP(O)(=S)OC[C@H]3O[C@@H](n4cc(F)c(=O)[nH]c4=O)C[C@@H]3O)[C@H](CO)O2)cc1F` (stereo partly drawn) [L-103 thio, [α-L,β-D]-FUdR, S = P-O], the “In vitro activity against P. falciparum, in words” value in the data set on P. falciparum was “reduced dramatically”. Also, the IC50 in the data set on P. falciparum (Plasmodium falciparum) was over 200 µM; with P. falciparum (Plasmodium falciparum, 24 h) it was over 200 µM.
Take `Nc1ccn([C@@H]2C[C@@H](OP(=O)(O)OC[C@H]3O[C@@H](n4cc(F)c(=O)[nH]c4=O)C[C@@H]3O)[C@H](CO)O2)c(=O)n1` [L-113]: the IC50 worked out at 17 µM with P. falciparum (setting [3]); 17 µM in the data set on P. falciparum (setting [4]); 17 µM with P. falciparum (Plasmodium falciparum, Table 3, β-L configuration of the L-nucleoside, read-out: IC50).
On to `O=c1ccn([C@@H]2C[C@@H](OP(O)(=S)OC[C@H]3O[C@@H](n4cc(F)c(=O)[nH]c4=O)C[C@@H]3O)[C@H](CO)O2)c(=O)[nH]1` (stereo partly drawn) [L-117 thio, β-L-dU, β-D-FUdR S = P-O], for which the “In vitro activity against P. falciparum, in words” value in the data set on P. falciparum is listed as “reduced dramatically”. In addition, the IC50 in the data set with P. falciparum (Plasmodium falciparum) is over 200 µM; in the data set on P. falciparum (Plasmodium falciparum, 24 h), over 200 µM.
With `Nc1ncnc2c1ncn2[C@H]1C[C@@H](OP(=O)(O)OC[C@H]2O[C@@H](n3cc(F)c(=O)[nH]c3=O)C[C@@H]2O)[C@H](CO)O1` [L-125, α-L-dA, β-D-FUdR], the “In vitro activity against P. falciparum, in words” value in the data set on P. falciparum is recorded as “reduces the dimer activity in comparison with dimers containing the β-L unit”. In addition, the IC50 with P. falciparum (setting [3]) came to 60 µM; with P. falciparum (setting [4]) it was 60 µM; with P. falciparum (Plasmodium falciparum, Table 3, α-L configuration of the L-nucleoside, read-out: IC50) it was 60 µM.
In the case of `O=c1[nH]c(=O)n([C@H]2C[C@H](OP(O)(=S)OC[C@H]3O[C@@H](n4cc(F)c(=O)[nH]c4=O)C[C@@H]3O)[C@@H](CO)O2)cc1F` (stereo partly drawn) [L-128, β-D, β-D-FUdR] S = P-O], the “In vitro activity against P. falciparum, in words” value in the data set with P. falciparum was “only active phosphorothioate analog; also recorded: greater in comparison with all possible products of hydrolysis; also recorded: most active compound tested”. Further, the “factor of increase in activity on replacing phosphate by phosphorothioate” value with P. falciparum (L-128 versus L-101) came to 10. Besides, the IC50 in the data set on P. falciparum (Plasmodium falciparum) is 1.5 µM; in the data set with P. falciparum (Plasmodium falciparum, 24 h), 1.5 µM.
`Nc1ncnc2c1ncn2[C@@H]1C[C@@H](OP(O)(=S)OC[C@H]2O[C@@H](n3cc(F)c(=O)[nH]c3=O)C[C@@H]2O)[C@H](CO)O1` (stereo partly drawn) [L-138-thio, β-L-dA, β-D-FUdR, S = P-O]: in the data set on P. falciparum, the “In vitro activity against P. falciparum, in words” value is on record as “reduced dramatically”. For the same molecule, in the data set with P. falciparum (Plasmodium falciparum, 24 h), the IC50 stood at 100 µM.
On to `O=[N+]([O-])c1ccc(CSc2ncnc3c2ncn3[C@@H]2O[C@H](CO)[C@@H](O)[C@H]2O)cc1` [NBMPR, nitrobenzylthionosine, reference compound], for which the IC50 in the data set on P. falciparum (setting [3]) was 100 µM.
On to `O=c1[nH]c(=O)n([C@H]2C[C@H](O)[C@@H](COP(=O)(O)O)O2)cc1F` [β-D-5'-FUdRmP, β-D-FUdR monophosphate, reference compound], for which the IC50 in the data set with P. falciparum (setting [5]) worked out at 50 µM.
Same read-out and setting: in the case of `O=c1[nH]c(=O)n([C@H]2C[C@H](O)[C@@H](CO)O2)cc1F` [β-D-FUdR, β-D-5-fluoro-2'-deoxyuridine, reference compound] it was 34 µM.
Consider `O=c1[nH]c(=O)n([C@@H]2C[C@@H](O)[C@H](CO)O2)cc1F` [β-L-FUdR, β-L-5-fluoro-2'-deoxyuridine], for which the IC50 in the data set on P. falciparum (Plasmodium falciparum, Erythrocyte, 24 h, Table 6, SATE derivatives of FUdR, read-out: ID50 (the source's name)) was over 200 µM.
With α-L-FUdR 5'SATE [B06], the IC50 on P. falciparum (setting [2]) was determined as 150 µM.
As for α-L-dT, NBMPR [L-146], the IC50 on P. falciparum (setting [2]) was over 200 µM.
As to β-D-FUdR 3'-5'SATE [B03], the IC50 on P. falciparum (setting [2]) is 6 µM.
The same measure, in the same setting: the same measure for β-D-FUdR 3'SATE [B01]: 100 µM.
Regarding β-D-FUdR 5'SATE [B02], on P. falciparum (setting [2]), the IC50 came to 60 µM.
Take β-D-FUdR, β-L-A [L-144]: the IC50 on P. falciparum (setting [2]) worked out at 140 µM; at P. falciparum (Table 2, FUdR linkage position 3', read-out: IC50), 140 µM.
Turning to β-L-FUdR 5'SATE [B04], the IC50 on P. falciparum (setting [2]) turned out to be 200 µM.
Still for that read-out and setting: the same measure for β-L-dU, NBMPR [L-145]: over 200 µM; for β-L-mercapto-G [GCI 1034]: over 200 µM.
